In US20190248765A1, “COMPOUNDS, COMPOSITIONS, AND METHODS FOR INCREASING CFTR ACTIVITY” (Proteostasis Therapeutics, Inc., priority 2016, published 2019):

Target: T1, ΔF508-CFTR (Homo sapiens, UniProt P13569, DEL508-508)
T1 construct: Primary lung epithelial cells homozygous for the Cystic Fibrosis-causing ΔF508 mutation were differentiated; endogenous in cells; host or cells: primary human lung/bronchial epithelial cells (hBE) homozygous for ΔF508, differentiated at an air-liquid interface
Experiment: hBE Equivalent Current (Ieq) Assay
Type: cell-based
Conditions: Compound A at 3 uM, primary lung epithelial cells homozygous for ΔF508, 24 hours treatment
Method: ii. hBE Equivalent Current (Ieq) Assay
Primary lung epithelial cells homozygous for the Cystic Fibrosis-causing ΔF508 mutation were differentiated for a minimum of 4 weeks in an air-liquid interface on Costar 24 well HTS filter plates prior to the equivalent current (Ieq) measurements. Cells were apically mucus-washed for 30 minutes 24 h prior to treatment with compounds. The basolateral media was removed and replaced with media containing the compound of interest diluted to its final concentration from DMSO stocks. Treated cells were incubated at 37° C. and 5% CO2 for 24 hours. At the end of the treatment period, the media was changed to the Ieq experimental solution for 2 hours before the experiment and plates are maintained in a CO2-free incubator during this period. The plates containing the cells were then placed in pre-warmed heating blocks at 36° C.±0.5 for 15 minutes before measurements are taken. The transepithelial voltage (VT) and conductance (GT) were measured using a custom 24 channel current clamp (TECC-24) with 24 well electrode manifold. The Ieq assay measurements were made following additions with standardized time periods:
1. The baseline VT and GT values were measured for approximately 20 minutes.
2. Benzamil was added to block ENaC for 15 minutes.
3. Forskolin plus VX-770 were added to maximally activate ΔF508-CFTR for 27 minutes.
4. Bumetanide was added to inhibit the NaK2Cl cotransporter and shut-off secretion of chloride.
The activity data captured was the area under the curve (AUC) for the traces of the equivalent chloride current. The AUC was collected from the time of the forskolin/VX-770 addition until the inhibition by bumetanide addition. Correction in response to compound treatment was scored as the increase in the AUC for compound-treated samples over that of vehicle-treated samples.
(+ indicates activity<150% of a CFTR amplifier (Compound A) with compound at concentration shown and Compound A at 3 uM; ++ indicates activity>150% of a CFTR amplifier with compound at concentration shown and Compound A at 3 uM.

T1 sequence (P13569 with tags, fused parts or gaps DEL508-508): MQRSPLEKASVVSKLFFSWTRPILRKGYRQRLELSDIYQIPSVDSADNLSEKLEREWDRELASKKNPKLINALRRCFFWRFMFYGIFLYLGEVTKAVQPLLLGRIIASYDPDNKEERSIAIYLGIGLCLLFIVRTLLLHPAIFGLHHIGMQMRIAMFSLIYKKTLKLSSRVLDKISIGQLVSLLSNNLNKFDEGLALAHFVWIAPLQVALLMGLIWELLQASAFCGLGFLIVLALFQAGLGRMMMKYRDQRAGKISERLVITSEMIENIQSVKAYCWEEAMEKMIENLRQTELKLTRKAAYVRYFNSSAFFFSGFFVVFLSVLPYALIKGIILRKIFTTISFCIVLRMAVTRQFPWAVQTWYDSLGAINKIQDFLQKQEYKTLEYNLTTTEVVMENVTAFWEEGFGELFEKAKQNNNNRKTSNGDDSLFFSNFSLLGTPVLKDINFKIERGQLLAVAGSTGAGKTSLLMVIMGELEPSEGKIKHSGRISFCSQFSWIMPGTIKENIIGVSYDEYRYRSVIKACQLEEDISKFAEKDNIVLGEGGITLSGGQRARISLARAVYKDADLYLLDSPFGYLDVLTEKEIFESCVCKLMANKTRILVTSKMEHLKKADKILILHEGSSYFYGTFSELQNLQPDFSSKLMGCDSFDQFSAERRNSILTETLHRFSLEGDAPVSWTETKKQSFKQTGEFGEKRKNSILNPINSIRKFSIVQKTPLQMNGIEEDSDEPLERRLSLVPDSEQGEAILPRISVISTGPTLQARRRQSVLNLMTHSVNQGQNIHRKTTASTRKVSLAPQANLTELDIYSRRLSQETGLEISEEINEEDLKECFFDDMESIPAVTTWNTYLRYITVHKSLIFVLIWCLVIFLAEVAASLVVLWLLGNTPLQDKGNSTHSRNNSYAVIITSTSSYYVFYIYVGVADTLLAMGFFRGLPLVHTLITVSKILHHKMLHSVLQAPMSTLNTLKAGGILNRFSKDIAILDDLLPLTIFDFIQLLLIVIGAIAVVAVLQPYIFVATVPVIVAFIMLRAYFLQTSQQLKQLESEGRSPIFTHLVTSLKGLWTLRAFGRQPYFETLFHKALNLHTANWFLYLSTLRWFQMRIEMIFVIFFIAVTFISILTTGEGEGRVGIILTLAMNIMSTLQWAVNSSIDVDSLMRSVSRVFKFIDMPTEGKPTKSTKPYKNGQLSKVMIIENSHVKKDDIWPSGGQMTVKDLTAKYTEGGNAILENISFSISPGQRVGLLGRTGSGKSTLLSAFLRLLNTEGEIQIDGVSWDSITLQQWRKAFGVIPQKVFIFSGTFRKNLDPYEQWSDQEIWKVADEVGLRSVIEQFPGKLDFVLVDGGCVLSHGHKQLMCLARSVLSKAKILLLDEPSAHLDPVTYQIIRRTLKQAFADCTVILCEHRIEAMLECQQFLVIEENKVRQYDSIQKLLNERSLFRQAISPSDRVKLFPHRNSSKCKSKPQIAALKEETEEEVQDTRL

Row | SMILES | Activity (AUC of equivalent chloride current, relative to CFTR amplifier Compound A) (compound at 3 μM) | Activity (AUC of equivalent chloride current, relative to CFTR amplifier Compound A) (compound at 10 μM)
1 | COc1cccc(-c2ccc(=O)n(C(C)c3nc4ccccc4o3)n2)c1 (stereo not shown) [Compound 1, 2-[1-(1,3-benzoxazol-2-yl)ethyl]-6-(3-methoxyphenyl)-2,3-dihydropyridazin-3-one] | + (activity<150% of a CFTR amplifier (Compound A) with compound at concentration shown and Compound A at 3 uM) | + (activity<150% of a CFTR amplifier (Compound A) with compound at concentration shown and Compound A at 3 uM)
2 | COc1cccc(-c2ccc(=O)n(C(C)c3nc4ccccc4[nH]3)n2)c1 (stereo not shown) [Compound 2, 2-[1-(1H-1,3-benzodiazol-2-yl)ethyl]-6-(3-methoxyphenyl)-2,3-dihydropyridazin-3-one] | – | + (activity<150% of a CFTR amplifier (Compound A) with compound at concentration shown and Compound A at 3 uM)
3 | COc1cccc(-c2ccc(=O)n(C(C)c3nc4cc(C(F)(F)F)ccc4[nH]3)n2)c1 (stereo not shown) [Compound 3, 6-(3-Methoxyphenyl)-2-(1-(5-(trifluoromethyl)-1H-benzo[d]imidazol-2-yl)ethyl)pyridazin-3(2H)-one] | ++ (activity>150% of a CFTR amplifier with compound at concentration shown and Compound A at 3 uM) | ++ (activity>150% of a CFTR amplifier with compound at concentration shown and Compound A at 3 uM)
4 | COc1cccc(-c2ccc(=O)n(C(C)c3nc4cc(C(C)(C)C)ccc4[nH]3)n2)c1 (stereo not shown) [Compound 4, 2-(1-(5-(tert-Butyl)-1H-benzo[d]imidazol-2-yl)ethyl)-6-(3-methoxyphenyl)pyridazin-3(2H)-one] | + (activity<150% of a CFTR amplifier (Compound A) with compound at concentration shown and Compound A at 3 uM) | + (activity<150% of a CFTR amplifier (Compound A) with compound at concentration shown and Compound A at 3 uM)
5 | COc1cccc(-c2ccc(=O)n(C(C)c3nc4cc(Cl)ccc4[nH]3)n2)c1 (stereo not shown) [Compound 5, 2-(1-(5-Chloro-1H-benzo[d]imidazol-2-yl)ethyl)-6-(3-methoxyphenyl)pyridazin-3(2H)-one] | + (activity<150% of a CFTR amplifier (Compound A) with compound at concentration shown and Compound A at 3 uM) | + (activity<150% of a CFTR amplifier (Compound A) with compound at concentration shown and Compound A at 3 uM)
6 | CC(c1nc2cc(C(F)(F)F)ccc2[nH]1)n1nc(-c2cccc(Cl)c2)ccc1=O (stereo not shown) [Compound 6, 6-(3-Chlorophenyl)-2-(1-(5-(trifluoromethyl)-1H-benzo[d]imidazol-2-yl)ethyl)pyridazin-3(2H)-one] | ++ (activity>150% of a CFTR amplifier with compound at concentration shown and Compound A at 3 uM) | ++ (activity>150% of a CFTR amplifier with compound at concentration shown and Compound A at 3 uM)
7 | COc1cccc(-c2ccc(=O)n(C(C)c3nc4nc(C(F)(F)F)ccc4[nH]3)n2)c1 (stereo not shown) [Compound 7, 6-(3-Methoxyphenyl)-2-(1-(5-(trifluoromethyl)-1H-imidazo[4,5-b]pyridin-2-yl)ethyl)pyridazin-3(2H)-one] | + (activity<150% of a CFTR amplifier (Compound A) with compound at concentration shown and Compound A at 3 uM) | + (activity<150% of a CFTR amplifier (Compound A) with compound at concentration shown and Compound A at 3 uM)
8 | COc1cccc(-c2ccc(=O)n(C(C)c3nc4cc(C(F)(F)F)cnc4[nH]3)n2)c1 (stereo not shown) [Compound 8, 6-(3-Methoxyphenyl)-2-(1-(6-(trifluoromethyl)-3H-imidazo[4,5-b]pyridin-2-yl)ethyl)pyridazin-3(2H)-one] | + (activity<150% of a CFTR amplifier (Compound A) with compound at concentration shown and Compound A at 3 uM) | + (activity<150% of a CFTR amplifier (Compound A) with compound at concentration shown and Compound A at 3 uM)
9 | COc1cccc(-c2ccc(=O)n(C(C)c3nc4cc(Cl)c(Cl)cc4[nH]3)n2)c1 (stereo not shown) [Compound 9, 2-(1-(5,6-Dichloro-1H-benzo[d]imidazol-2-yl)ethyl)-6-(3-methoxyphenyl)pyridazin-3(2H)-one] | ++ (activity>150% of a CFTR amplifier with compound at concentration shown and Compound A at 3 uM) | ++ (activity>150% of a CFTR amplifier with compound at concentration shown and Compound A at 3 uM)
10 | CC(c1nc2cc(Cl)c(Cl)cc2[nH]1)n1nc(-c2cccc(Cl)c2)ccc1=O (stereo not shown) [Compound 10, 6-(3-Chlorophenyl)-2-(1-(5,6-dichloro-1H-benzo[d]imidazol-2-yl)ethyl)pyridazin-3(2H)-one] | + (activity<150% of a CFTR amplifier (Compound A) with compound at concentration shown and Compound A at 3 uM) | + (activity<150% of a CFTR amplifier (Compound A) with compound at concentration shown and Compound A at 3 uM)
11 | COc1cccc(-c2ccc(=O)n(C(C)c3nnc(-c4ccccc4)[nH]3)n2)c1 (stereo not shown) [Compound 11, 6-(3-Methoxyphenyl)-2-[1-(5-phenyl-4H-1,2,4-triazol-3-yl)ethyl]-2,3-dihydropyridazin-3-one] | – | + (activity<150% of a CFTR amplifier (Compound A) with compound at concentration shown and Compound A at 3 uM)
12 | COc1cccc(-c2ccc(=O)n(C(C)c3nnc(-c4ccc(C(F)(F)F)cc4)[nH]3)n2)c1 (stereo not shown) [Compound 12, 6-(3-Methoxyphenyl)-2-(1-(5-(4-(trifluoromethyl)phenyl)-4H-1,2,4-triazol-3-yl)ethyl)pyridazin-3(2H)-one] | – | + (activity<150% of a CFTR amplifier (Compound A) with compound at concentration shown and Compound A at 3 uM)
13 | COc1cccc(-c2ccc(=O)n(C(C)c3nnc(-c4cccc(C(F)(F)F)c4)[nH]3)n2)c1 (stereo not shown) [Compound 13, 6-(3-Methoxyphenyl)-2-(1-(5-(3-(trifluoromethyl)phenyl)-4H-1,2,4-triazol-3-yl)ethyl)pyridazin-3(2H)-one] | – | + (activity<150% of a CFTR amplifier (Compound A) with compound at concentration shown and Compound A at 3 uM)
